One data set has as its system diabetic porcine model. Nature of the data set: Site-loss evaluation of insulin infusion sets in diabetic porcine model (blood glucose >350 mg/dl not corrected by insulin). The data set is classed as in vivo, pig. The following applies: for site-loss performance versus the control: agent formulated with insulin (Humalog). On the procedure:
The objectives of this study include duplicating the site-loss phenomena observed in previous studies using a diabetic porcine model. Additionally, various infusion set configurations are evaluated for reducing site-loss and extending infusion set wear. Further, site-loss is mitigated using a response-inhibiting agent and/or infusion pump to increase reliability of wear for 3 days and extend infusion set wear beyond 3 days.
The objectives of this study include: duplicating the site-loss phenomena observed in previous studies using the diabetic porcine model; using the established diabetic porcine model to evaluate the effects of various infusion set designs on infusion site-loss; and testing if site-loss can be mitigated by direct pump infusing of immunosuppressant/anti-inflammatory drugs, and/or by modifying infusion set by drug coating.
This study is designed so that each set (inserted under anesthesia) is to be worn for 1 week unless there was set failure/dislodge. Glucose is monitored by a blood glucose meter and Enlite™ sensor. The criteria for determining site loss is that blood glucose is greater than 350 mg/dl and fails to decrease following an insulin dose correction. During biopsy pumps are removed but the cannula is maintained in-situ. Site skin is examined for edema/erythema (swell/redness) (see FIG. 8).

The nature of data set [1]: Assay of rapamycin/Humalog solution after use. In kind it is physicochemical. The following applies: 20 μg/mL solution assayed after use.
The next data set has as its system diabetic pig. Nature of the data set: Histopathology of infusion sites (inflammation at catheter tip and body). In kind it is in vivo. The following applies: listed as Humalog™. An excerpt:
FIG. 2A is a series of histologic evaluations at the catheter tip showing the inflammatory response (score), and size of the area with tissue reaction. “*” indicates the catheter location and “F” indicates normal fat. […] FIG. 2B is a series of graphs illustrating the inflammation at the catheter tip for diabetic and non-diabetic pigs. Localized inflammation loosely correlated with site-loss.
FIG. 2C is a series of graphs illustrating the predominate inflammation cells at the catheter tip and catheter body (qualitative). To isolate the main inflammation contributors, a catheter, a catheter infused with insulin (Humalog™), and a catheter infused with placebo were placed on a diabetic pig at the same time.
FIG. 2D is a series of graphs illustrating the predominate inflammation cells at the catheter tip and catheter body of an insulin injection port (i-Port™). To isolate the main inflammation contributors, a catheter, a catheter infused with insulin, and a catheter infused with placebo were placed on a diabetic pig. Compared to continuous infusion, the giant cells are missing in the i-Port™ study. […] As observed by the pathologist, the pigs may have developed a hypersensitivity to the Humalog™ and such a reaction would contribute to the inflammation seen (the degree that hypersensitivity is influencing the inflammation is unclear but it could be one of the main drivers).

The test system of data set [2] is normal and diabetic Yucatan pigs. In words: PK/PD study: blood glucose response to Humalog. The data set is classed as in vivo, Yucatan pig. The source says: Factors influencing insulin pK/pD properties include inflammation, infection, immune response, wound healing cascade, age of patients, type of insulin used, site of insertion, layer of scar tissue where the catheter tip resides, and several others. 6 Yucatan pigs were used in this study: 2 normal and 4 diabetic pigs, as shown in […]

Entries after “also recorded” stand apart in the source; their conditions may differ.

Turning to `C[C@H]1C[C@H]2[C@@H]3CCC4=CC(=O)C=C[C@]4(C)[C@@]3(F)[C@@H](O)C[C@]2(C)[C@@]1(O)C(=O)COP(=O)([O-])[O-].[Na+].[Na+]` [BSP, betamethasone sodium phosphate], the “site-loss performance versus the control” value in the data set on diabetic porcine model was “significantly worse than the control”.

Regarding `C[C@@H]1C[C@H]2[C@@H]3CCC4=CC(=O)C=C[C@]4(C)[C@@]3(F)[C@@H](O)C[C@]2(C)[C@@]1(O)C(=O)COP(=O)(O)O` [DXP, Dexamethasone Phosphate], in the data set on diabetic porcine model, the “site-loss performance versus the control” value is reported as “significantly worse than the control”.

Take `CO[C@H]1C[C@@H]2CC[C@@H](C)[C@@](O)(O2)C(=O)C(=O)N2CCCC[C@H]2C(=O)O[C@H]([C@H](C)C[C@@H]2CC[C@@H](O)[C@H](OC)C2)CC(=O)[C@H](C)/C=C(\C)[C@@H](O)[C@@H](OC)C(=O)[C@H](C)C[C@H](C)/C=C/C=C/C=C/1C` [Rapamycin]: the “stability of rapamycin in U100 Humalog solution” value in data set [1] was “*Rapamycin was later found to be degraded by assaying solution after use”. Also, the “recovery of infusion site after” value in the data set with diabetic porcine model (dosed with Humalog) is on record as “around 6 days”. In the data set with diabetic porcine model (formulation of insulin (Humalog) with agent, Sof-Set), the “duration of wear before site-loss” value amounted to 5 days. On to Dextran Sulfate Sodium Salt, for which the “site-loss performance versus the control” value with diabetic porcine model is recorded as “significantly better than the control”. Turning to Insulin lispro, the “order of evaluated inflammation scores” value in the data set on diabetic pig (catheter, catheter infused with insulin, catheter infused with placebo on a diabetic pig) was “insulin≥placebo≥catheter; also recorded: insulin≥placebo≥cannula”. In addition, in the data set with diabetic pig (compared to catheter and placebo), the “localized inflammation / tissue fibrosis” value is recorded as “associated with increased localized inflammation; also recorded: main contributor to localized tissue fibrosis”. The “blood glucose level lowering” value in data set [2] is on record as “effectively lower blood glucose level”. With heparin sodium, the “no site-loss occurred in” value with diabetic porcine model (U100 Humalog with heparin sodium 3.55 mg/mL (685 U/mL), continuous infusion, pigs IM3 and IM4, control IM1 site-loss in 2 days) was above 6 days. In the data set on diabetic porcine model, the “site-loss performance versus the control” value is “significantly better than the control”.
